The assay relates to delta-5-desaturase. Nature of the assay: Two-week feeding study, AA/DGLA ratio in plasma. The following applies: for Average % decrease in AA/DGLA Ratio in Plasma: mice, 36.7 mg/day sesamol palmitate in safflower oil by gavage, low-fat diet. Type of assay: in vivo, mice. The method, then:
To determine the ability of a sesamol derivative of the present invention to inhibit the formation of arachidonic acid, a two-week feeding study was done with two groups of mice with 8 mice in each group. We mixed 4.4 g of sesamol palmitate into 60 ml of safflower oil. This provided a concentration of sesamol palmitate of 73.3 mg/ml. The mice in the sesamol group received 500 μl each day (36.7 mg) via gavage of the sesamol palmitate compound in safflower oil whereas the control group received 500 μl of the safflower oil control. Both groups were maintained on a low-fat diet. 200 μl of blood was drawn at three time points (0, 1, and 2 weeks) for analysis of the fatty acid composition in the plasma.
Since the sesamol derivative, sesamol palmitate, inhibits the enzyme delta-5-desaturase that converts dihomo gamma linolenic acid (DGLA) to arachidonic acid (AA), we choose to look at the decrease in the AA/DGLA ratio as an indication of efficacy of sesamol palmitate in inhibiting the key enzyme. The percent difference between the AA/DGLA ratio in each […] was determined at the starting point and at days 7 and 14. The percent differences in the AA/DGLA per each rat in the active and placebo groups were then averaged.

Take `CCCCCCCCCCCCCCCC(=O)Oc1ccc2c(c1)OCO2` [Sesamol Palmitate]: the “Average % decrease in AA/DGLA Ratio in Plasma” value is −25.4% (Days 0-7) and −23.4% (Days 0-14). The “Average decrease in the AA/DGLA ratio relative to placebo group” value (active group versus placebo group) is “approximately double”.

Source of the values: US20170014432A1, “COMPOSITIONS AND METHODS FOR REDUCING CHRONIC LOW-LEVEL INFLAMMATION” (priority 2014, published 2017).
